These results are taken from US12398141B2 (SHANGHAI SYNERGY PHARMACEUTICAL SCIENCES CO., LTD, priority 2019, dated 2025).

As usually defined, the IC50 is the concentration that inhibits the measured activity by half.

The target of one test is JAK2 (Homo sapiens (Human), UniProt O60674). The experiment in a line: JAK2 LANCE Ultra kinase assay. The class given is biochemical. As to conditions: 12 uM ATP.
A further test concerns Lewis male mice. The test is described as follows: Collagen-induced rheumatoid arthritis model, clinical score. As to conditions: clinical score 0-16 per animal, compounds 10 mg/kg twice/day, methotrexate 2 mg/kg every three days. Format: in vivo. The arrangement: key: 0-4 per limb by redness/deformity, max 16 per animal. On the procedure:
(§1) The effects of compounds H07, H12, H14, H25, H30, H39 and H44 on rheumatoid arthritis in […] were determined after long term administration by using Lewis male […] (Beijing Vital River Laboratory Animal Technology Co., Ltd.), aged 5-6 weeks and weighing […] as test animals. The anti-inflammatory pharmacodynamics characteristic of the compounds of the invention was discussed.
(§2) A certain amount of compounds were taken and dissolved in 4% Tween 80/0.5% hydroxy propyl methyl cellulose solution. A volume of intragastric administration of mice was 10 ml/kg.
(§3) Collagen type II was dissolved in 0.1M acetic acid and kept in a 4° C. refrigerator overnight at a collagen concentration of 4 mg/mL. Same volume of incomplete Freund adjuvant (Sigma, USA) was added in collagen before injection in test, which was emulsified high speed homogenizer (30000 rpm) to prepare a collagen emulsion. This procedure was carried out on ice.
(§4) Mice were immunologically injected with the collagen emulsion by two separate times for modeling on days 1 and 7 (the day before modeling was day 0). 0.1 ml of collagen emulsion prepared as above was injected intradermally into a root of tail at a single point, and 0.2 ml was injected intradermally into back at two points. The animals were subjected to clinical score and paw volume test from day 10 to day 14 after modeling. Animals successfully modeled (average clinical score≥3 points/animal) were assigned to each administration group, with each group included 10 animals. They were administrated intragastrically with above compounds or resolvents at a dosage of 10 mg/kg twice/day, and administrated intragastrically with methotrexate (2 mg/kg, Sigma, USA) every three days, until day 27. During the test, the […] were scored twice a week, and the paw volume and body weight were measured twice.
(§5) According to the different degrees of lesions (redness and joint deformation), the scores were ranged from 0 to 4 points, with the highest score of 4 points for each limb and 16 points for each animal. Scoring standards are as follows: 0, no redness; 1, slight redness on mid legs (tarsals) or ankles; 2, slight redness from ankles to mid legs (tarsals); 3, medium redness from ankles to tarsometatarsal joints; 4, severe redness from toes or fingers to ankles or wrist joints.

Assay in test [1]: as above
The class given is in vivo, mice. The arrangement: key: 0-4 per limb by redness/deformity, max 16 per animal. As to conditions: clinical score 0-16 per animal, Day 0 (before modeling). On the procedure:
as §1, §2, §3, §4, §5

Chain of JAK2 (O60674 whole entry): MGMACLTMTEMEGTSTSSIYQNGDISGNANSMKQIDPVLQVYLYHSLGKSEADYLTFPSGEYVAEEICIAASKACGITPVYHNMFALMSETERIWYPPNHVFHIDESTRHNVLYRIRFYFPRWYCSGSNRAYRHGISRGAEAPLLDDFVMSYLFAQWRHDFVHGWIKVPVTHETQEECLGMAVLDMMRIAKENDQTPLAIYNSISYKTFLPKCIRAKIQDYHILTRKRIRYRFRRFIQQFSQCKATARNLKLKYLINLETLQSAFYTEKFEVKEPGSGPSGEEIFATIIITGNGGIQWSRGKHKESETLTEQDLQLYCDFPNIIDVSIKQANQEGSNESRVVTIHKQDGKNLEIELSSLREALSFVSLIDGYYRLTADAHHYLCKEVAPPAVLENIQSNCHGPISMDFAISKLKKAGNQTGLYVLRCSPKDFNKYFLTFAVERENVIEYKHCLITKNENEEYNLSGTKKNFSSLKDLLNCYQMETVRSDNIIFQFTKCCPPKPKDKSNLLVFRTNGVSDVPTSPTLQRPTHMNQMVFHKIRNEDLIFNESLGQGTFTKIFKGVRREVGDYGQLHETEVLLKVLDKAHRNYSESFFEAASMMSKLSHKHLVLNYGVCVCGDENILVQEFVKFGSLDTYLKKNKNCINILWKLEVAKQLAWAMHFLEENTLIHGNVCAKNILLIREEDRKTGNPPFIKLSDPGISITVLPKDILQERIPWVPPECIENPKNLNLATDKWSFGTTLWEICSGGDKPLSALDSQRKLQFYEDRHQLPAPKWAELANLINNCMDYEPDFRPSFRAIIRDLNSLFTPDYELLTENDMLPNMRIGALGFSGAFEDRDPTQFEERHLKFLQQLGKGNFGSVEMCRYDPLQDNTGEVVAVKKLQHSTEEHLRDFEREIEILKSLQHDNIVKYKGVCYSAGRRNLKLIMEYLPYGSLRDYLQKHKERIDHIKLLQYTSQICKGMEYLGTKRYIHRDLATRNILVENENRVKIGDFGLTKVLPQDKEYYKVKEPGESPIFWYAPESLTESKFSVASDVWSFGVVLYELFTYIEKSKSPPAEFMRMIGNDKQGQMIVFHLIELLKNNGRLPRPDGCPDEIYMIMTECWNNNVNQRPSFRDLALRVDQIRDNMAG

Take `COc1nsc(NC(=O)N[C@H]2C[C@@H](N(C)c3c(C#N)cnc4[nH]ccc34)C2)n1` [Compound H29, (cis)-1-(3-((5-cyano-1H-pyrrolo[2,3-b]pyridin-4-yl)(methyl)amino)cyclobutyl)-3-(3-methoxy-1,2,4-thiadiazole-5-yl)urea]: the midpoint of inhibition on JAK2, the IC50, lay at 6.8 nM.
Same read-out and setting: the value for `C[C@@H]1CCN(C(=O)CC#N)C[C@@H]1N(C)c1c(C#N)cnc2[nH]ccc12` [Compound H11, 4-{[(3R,4R)-1-(2-cyanoacetyl)-4-methylpiperidin-3-yl]-methyl-amino}-1H-pyrrolo[2,3-b]pyridin-5-carbonitrile] was 9.86 nM.
For `CC(C)c1nsc(NC(=O)N2C[C@H]3C[C@H](N(C)c4c(C#N)cnc5[nH]ccc45)C[C@H]3C2)n1` [Compound H30, (3aR,5s,6aS)-4-({2-[(3-isopropyl-1,2,4-thiadiazole-5-yl)carbamoyl]-hexahydrocyclopenta[c]pyrrole-5-yl}-methyl-amino)-1H-pyrrolo[2,3-b]pyridin-5-carbonitrile], the IC50 against JAK2 was 6.4 nM. For the same compound, in the test with Lewis male mice, the “Score Day 13” value is recorded as 3.20 ± 0.37, the “Score Day 14” value is 4.00 ± 0.45, the “Score Day 18” value is reported as 3.50 ± 0.50 and the “Score Day 21” value amounted to 2.83 ± 0.29. In addition, in the test on Lewis male mice, the “Score Day 25” value worked out at 2.00 ± 0.27 and the “Score Day 27” value is given as 1.20 ± 0.27. Further, the “Score Day 0” value in test [1] is 0.00 ± 0.00.
Regarding `CN(c1c(C#N)cnc2[nH]ccc12)[C@H]1C[C@@H]2CN(C(=O)Nc3nc(OCC(C)(C)N)ns3)C[C@@H]2C1` [Compound H44, (3aR,5s,6aS)-5-((5-cyano-1H-pyrrolo[2,3-b]pyridin-4-yl)(methyl)amino)-N-(3-(2-amino-2-methyl-propoxy)-1,2,4-thiadiazole-5-yl)hexahydrocyclopentadiene[c]pyrrole-2(1H)-carboxamide], on JAK2, the IC50 turned out to be 15.6 nM. In addition, in the test with Lewis male mice, the “Score Day 13” value was found to be 2.80 ± 0.45, the “Score Day 14” value was determined as 3.40 ± 0.27, the “Score Day 18” value is reported as 2.13 ± 0.21 and the “Score Day 21” value is given as 1.70 ± 0.10. Besides, in the test on Lewis male mice, the “Score Day 25” value was 0.83 ± 0.48 and the “Score Day 27” value is 0.64 ± 0.34. In test [1], the “Score Day 0” value is listed as 0.00 ± 0.00.
In the case of `N#Cc1cnc2[nH]ccc2c1N1CC2CN(C(=O)NCC(F)(F)F)CC21` (stereo not drawn) [Compound H39, 6-(5-cyano-1H-pyrrolo[2,3-b]pyridin-4-yl)-N-(2,2,2-trifluoroethyl)-3,6-diazabicyclo[3.2.0]heptane-3-carboxamide], the IC50 on JAK2 is 21 nM. Moreover, in the test on Lewis male mice, the “Score Day 13” value was found to be 3.10 ± 0.44, the “Score Day 14” value amounted to 4.10 ± 0.50, the “Score Day 18” value was 3.0 ± 0.37 and the “Score Day 21” value was 2.33 ± 0.31. Moreover, in the test on Lewis male mice, the “Score Day 25” value is on record as 2.20 ± 0.52 and the “Score Day 27” value stood at 1.10 ± 0.27. The “Score Day 0” value in test [1] amounted to 0.00 ± 0.00.
With `CN(c1c(C#N)cnc2[nH]ccc12)[C@H]1C[C@@H]2CN(C(=O)Nc3ccc(Cl)c(C(F)(F)F)c3)C[C@@H]2C1` [Compound H25, (3aR,5s,6aS)-N-(4-chloro-3-(trifluoromethyl)phenyl)-5-((5-cyano-1H-pyrrolo[2,3-b]pyridin-4-yl)(methyl)amino)hexahydrocyclopentadiene[c]pyrrole-2(1H)-carboxamide], the midpoint of inhibition at JAK2, the IC50, lay at 6.7 nM. Further, in the test with Lewis male mice, the “Score Day 13” value is given as 2.90 ± 0.48, the “Score Day 14” value amounted to 3.40 ± 0.27, the “Score Day 18” value amounted to 2.13 ± 0.21 and the “Score Day 21” value was found to be 1.10 ± 0.10. Further, in the test with Lewis male mice, the “Score Day 25” value turned out to be 0.93 ± 0.18 and the “Score Day 27” value is listed as 0.74 ± 0.34. In addition, the “Score Day 0” value in test [1] was found to be 0.00 ± 0.00.
With `CN(c1c(C#N)cnc2[nH]ccc12)[C@H]1C[C@@H]2CN(C(=O)NCC(F)(F)F)C[C@@H]2C1` [Compound H22, (3aR,5s,6aS)-4-({2-[(2,2,2-trifluoroethyl)-carbamoyl]-hexahydrocyclopenta[c]pyrrole-5-yl}-methyl-amino)-1H-pyrrolo[2,3-b]pyridin-5-carbonitrile], the IC50 at JAK2 was 5.8 nM.
On the same count and under the same terms, the value for `CN(c1c(C#N)cnc2[nH]ccc12)[C@H]1C[C@@H](NS(=O)(=O)CCC(F)(F)F)C1` [Compound H15, (cis)-4-{[3-(3,3,3-trifluoropropanesulfonamide)-cyclobutyl-1-yl]-methyl-amino}-1H-pyrrolo[2,3-b]pyridin-5-carbonitrile] was 16.6 nM.
Consider `COc1nsc(NC(=O)N2C[C@H]3C[C@H](N(C)c4c(C#N)cnc5[nH]ccc45)C[C@H]3C2)n1` [Compound H07, (3aR,5s,6aS)-4-({2-[(3-methoxy-1,2,4-thiadiazole-5-yl)carbamoyl]-hexahydrocyclopenta[c]pyrrole-5-yl}-methyl-amino)-1H-pyrrolo[2,3-b]pyridin-5-carbonitrile], for which, in the test with Lewis male mice, the “Score Day 13” value was found to be 3.10 ± 056, the “Score Day 14” value came to 4.10 ± 0.41, the “Score Day 18” value turned out to be 3.10 ± 0.30 and the “Score Day 21” value was 3.00 ± 0.11. Also, in the test on Lewis male mice, the “Score Day 25” value is 2.00 ± 0.25 and the “Score Day 27” value was determined as 1.00 ± 0.17. In addition, in test [1], the “Score Day 0” value worked out at 0.00 ± 0.00.
On JAK2, `N#Cc1cnc2[nH]ccc2c1N[C@H]1C[C@@H](NS(=O)(=O)CCC(F)(F)F)C1` [Compound H12, (cis)-4-{[3-(3,3,3-trifluoropropanesulfonamido)-cyclobutyl-1-yl]-amino}-1H-pyrrolo[2,3-b]pyridin-5-carbonitrile] displayed an IC50 of 7.63 nM. Besides, in the test with Lewis male mice, the “Score Day 13” value was 3.40 ± 0.39, the “Score Day 14” value came to 3.90 ± 0.61, the “Score Day 18” value stood at 2.90 ± 0.67 and the “Score Day 21” value worked out at 1.23 ± 0.29. Moreover, in the test with Lewis male mice, the “Score Day 25” value is 0.60 ± 0.17 and the “Score Day 27” value is given as 0.50 ± 0.14. Also, the “Score Day 0” value in test [1] was found to be 0.00 ± 0.00.
In turn, `CN(C)c1nsc(NC(=O)N2C[C@H]3C[C@H](N(C)c4c(C#N)cnc5[nH]ccc45)C[C@H]3C2)n1` [Compound H33, (3aR,5s,6aS)-4-({2-[(3-dimethylamino-1,2,4-thiadiazole-5-yl)carbamoyl]-hexahydrocyclopenta[c]pyrrole-5-yl}-methyl-amino)-1H-pyrrolo[2,3-b]pyridin-5-carbonitrile] returned an IC50 against JAK2 of 5.7 nM.
`CCCS(=O)(=O)N[C@H]1C[C@@H](N(C)c2c(C#N)cnc3[nH]ccc23)C1` [Compound H14, (cis)-4-{[3-(propanesulfonamido)-cyclobutyl-1-yl]-methyl-amino}-1H-pyrrolo[2,3-b]pyridin-5-carbonitrile] gave an IC50 against JAK2 of 9.95 nM. Also, in the test on Lewis male mice, the “Score Day 13” value is on record as 3.30 ± 0.32, the “Score Day 14” value worked out at 4.10 ± 0.50, the “Score Day 18” value was found to be 3.20 ± 0.73 and the “Score Day 21” value was 3.20 ± 0.61. For the same compound, in the test on Lewis male mice, the “Score Day 25” value turned out to be 2.20 ± 0.45 and the “Score Day 27” value is listed as 1.10 ± 0.27. The “Score Day 0” value in test [1] is 0.00 ± 0.00.
